Measured values reported in PubChem BioAssay AID328 (DTP/NCI, 2004).
Values joined by “and” are separate entries in the source; they are usually repeats but may differ in a detail not shown here. Identical values can stand only once. Toxic doses and inconclusive results are not listed. The calls were made as follows: active = survival T/C of 150% or more; inactive = T/C below 125% in these data.

Test system: BDF1 mice, P388 leukemia ip, median survival T/C
Assay: NCI In Vivo Anticancer Drug Screen. Data for tumor model P388 Leukemia (intraperitoneal) in B6D2F1 (BDF1) mice
Conditions: endpoint: median survival time, higher = longer survival
Procedure, shortened: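 Vehicle-dosed animals serve as the reference; survival of compound-dosed, tumour-implanted mice is divided by it.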

[1] = dose: 25.0 mg/kg/injection, schedule: Q01DX009 (ip), vehicle: saline with Tween-80
[2] = dose: 50.0 mg/kg/injection, schedule: Q01DX009 (ip), vehicle: saline with Tween-80
[3] = dose: 100.0 mg/kg/injection, schedule: Q01DX009 (ip), vehicle: saline with Tween-80
[4] = dose: 100.0 mg/kg/injection, schedule: Q04DX003 (ip), vehicle: saline
[5] = dose: 200.0 mg/kg/injection, schedule: Q01DX009 (ip), vehicle: saline with Tween-80
[6] = dose: 200.0 mg/kg/injection, schedule: Q04DX003 (ip), vehicle: saline
[7] = dose: 400.0 mg/kg/injection, schedule: Q04DX003 (ip), vehicle: saline
[8] = dose: 50.0 mg/kg/injection, schedule: Q04DX003 (ip), vehicle: other
[9] = dose: 100.0 mg/kg/injection, schedule: Q04DX003 (ip), vehicle: other
[10] = dose: 6.25 mg/kg/injection, schedule: Q01DX009 (ip), vehicle: saline
[11] = dose: 12.5 mg/kg/injection, schedule: Q01DX009 (ip), vehicle: saline
[12] = dose: 50.0 mg/kg/injection, schedule: Q01DX009 (ip), vehicle: saline
[13] = dose: 100.0 mg/kg/injection, schedule: Q01DX009 (ip), vehicle: saline
[14] = dose: 200.0 mg/kg/injection, schedule: Q01DX009 (ip), vehicle: saline
[15] = dose: 1.56 mg/kg/injection, schedule: Q01DX009 (ip), vehicle: saline
[16] = dose: 6.25 mg/kg/injection, schedule: Q04DX003 (ip), vehicle: saline

Measured: T/C

N=P(N[P+](N)(c1ccccc1)c1ccccc1)(c1ccccc1)c1ccccc1
inactive: dose: 6.25 mg/kg/injection, schedule: Q01DX001 (ip), vehicle: saline 117 % of control | dose: 8.2 mg/kg/injection, schedule: Q01DX001 (ip), vehicle: saline 100 % of control | dose: 12.5 mg/kg/injection, schedule: Q01DX001 (ip), vehicle: saline 100 % of control | dose: 18.0 mg/kg/injection, schedule: Q01DX001 (ip), vehicle: saline 104 % of control | dose: 25.0 mg/kg/injection, schedule: Q01DX001 (ip), vehicle: saline 116 % of control

O=C(O)CC(SC(CC(=O)O)C(F)(F)C(F)(F)C(F)(F)F)C(F)(F)C(F)(F)C(F)(F)F (stereo not given)
inactive: [1] 100 % of control | [2] 110 % of control | [3] 110 % of control

O=C1OC(COCC#Cc2ccccc2)CN1c1ccccc1 (stereo not given)
inactive: [3] 104 % of control | [4] 92 % of control | [5] 100 % of control | [6] 107 % of control | dose: 400.0 mg/kg/injection, schedule: Q01DX009 (ip), vehicle: saline with Tween-80 100 % of control | [7] 92 % of control

Cc1ccc(N2CCOC2=O)cc1N1CCOC1=O
inactive: dose: 25.0 mg/kg/injection, schedule: Q01DX009 (ip), vehicle: other 100 % of control | dose: 25.0 mg/kg/injection, schedule: Q04DX003 (ip), vehicle: other 109 % of control | dose: 50.0 mg/kg/injection, schedule: Q01DX009 (ip), vehicle: other 100 % of control | [8] 100 % of control | dose: 100.0 mg/kg/injection, schedule: Q01DX009 (ip), vehicle: other 109 % of control | [9] 100 % of control

CCN(CC)CCNC(=S)N/N=C(C)\C(C)=N/NC(=S)NCCN(CC)CC
inactive: [10] 105 % of control | [11] 105 % of control

Cc1c(Cl)c(Cl)c(NS(=O)(=O)c2ccccc2)c(NS(=O)(=O)c2ccccc2)c1Cl
inactive: dose: 100.0 mg/kg/injection, schedule: Q01DX009 (ip), vehicle: Klucel (hydroxypropylcellulose) (HPC) 100 % of control | dose: 100.0 mg/kg/injection, schedule: Q04DX003 (ip), vehicle: Klucel (hydroxypropylcellulose) (HPC) 90 % of control | dose: 200.0 mg/kg/injection, schedule: Q01DX009 (ip), vehicle: Klucel (hydroxypropylcellulose) (HPC) 90 % of control | dose: 200.0 mg/kg/injection, schedule: Q04DX003 (ip), vehicle: Klucel (hydroxypropylcellulose) (HPC) 104 % of control | dose: 400.0 mg/kg/injection, schedule: Q01DX009 (ip), vehicle: Klucel (hydroxypropylcellulose) (HPC) 95 % of control | dose: 400.0 mg/kg/injection, schedule: Q04DX003 (ip), vehicle: Klucel (hydroxypropylcellulose) (HPC) 100 % of control

Cc1cccc(=O)n1CCC#N
inactive: [4] 96 % of control | [6] 96 % of control | [7] 100 % of control

CC(C)CCCCCCCCCCCCC(=O)NCC(=O)NC1C(C)OC(Nc2ncnc3nc[nH]c23)C(O)C1O (stereo not given)
inactive: dose: 432.0 micrograms/kg/injection, schedule: Q04DX003 (ip), vehicle: saline 110 % of control

NC(=S)NNC(=O)C(Cc1ccccc1)NC(=O)OCc1ccccc1 (stereo not given)
inactive: dose: 12.5 mg/kg/injection, schedule: Q01DX009 (ip), vehicle: saline with Tween-80 100 % of control | [1] 94 % of control

CCCC1CC[N-]CC1.CCCC1CC[N-]CC1.CCCC1CC[N-]CC1.CCCC1CC[N-]CC1.O=C([O-])C(=O)[O-].O=C([O-])C(=O)[O-].[Cl][Rh][Cl].[Nb+5].[O-][O-].[O-][O-]
inactive: [11] 112 % of control | dose: 25.0 mg/kg/injection, schedule: Q01DX009 (ip), vehicle: saline 91 % of control and 100 % of control | [12] 87 % of control and 97 % of control and 98 % of control | [13] 87 % of control | [14] 99 % of control | dose: 400.0 mg/kg/injection, schedule: Q01DX009 (ip), vehicle: saline 91 % of control and 94 % of control

CC[N+](CC)(CC)CC[N+](CC)(CC)CC
inactive: [12] 95 % of control | [13] 96 % of control and 88 % of control | [14] 95 % of control and 91 % of control

O=C(O)C(=O)O.O=C([O-])C(=O)O.O=C([O-])C(=O)O.O=C([O-])C(=O)[O-].[K+].[U]
inactive: dose: 1.02 mg/kg/injection, schedule: Q01DX009 (ip), vehicle: saline 90 % of control | [15] 91 % of control | dose: 2.34 mg/kg/injection, schedule: Q01DX009 (ip), vehicle: saline 95 % of control | [10] 95 % of control | [16] 90 % of control | [11] 100 % of control | dose: 50.0 mg/kg/injection, schedule: Q04DX003 (ip), vehicle: saline 86 % of control

COC(=O)c1cc(=O)nc(N/N=C/c2ccco2)s1
inactive: dose: 50.0 mg/kg/injection, schedule: Q01DX005 (ip), vehicle: saline with Tween-80 94 % of control | dose: 100.0 mg/kg/injection, schedule: Q01DX005 (ip), vehicle: saline with Tween-80 89 % of control | dose: 200.0 mg/kg/injection, schedule: Q01DX005 (ip), vehicle: saline with Tween-80 87 % of control

CC1CN1CC(O)C(O)CN1CC1C (stereo not given)
inactive: dose: 0.09 mg/kg/injection, schedule: Q04DX003 (ip), vehicle: saline 100 % of control | dose: 0.19 mg/kg/injection, schedule: Q04DX003 (ip), vehicle: saline 103 % of control | [10] 95 % of control | dose: 10.0 mg/kg/injection, schedule: Q04DX003 (ip), vehicle: saline 86 % of control
active: dose: 0.78 mg/kg/injection, schedule: Q01DX009 (ip), vehicle: saline 165 % of control | dose: 0.78 mg/kg/injection, schedule: Q04DX003 (ip), vehicle: saline 200 % of control | dose: 0.8 mg/kg/injection, schedule: Q01DX009 (ip), vehicle: saline with Tween-80 225 % of control | dose: 1.2 mg/kg/injection, schedule: Q01DX009 (ip), vehicle: saline with Tween-80 241 % of control | dose: 1.3 mg/kg/injection, schedule: Q04DX003 (ip), vehicle: saline 170 % of control | [15] 203 % of control | dose: 1.56 mg/kg/injection, schedule: Q04DX003 (ip), vehicle: saline 229 % of control and 181 % of control | dose: 1.8 mg/kg/injection, schedule: Q01DX009 (ip), vehicle: saline with Tween-80 250 % of control | dose: 2.0 mg/kg/injection, schedule: Q01DX009 (ip), vehicle: saline 250 % of control | dose: 3.0 mg/kg/injection, schedule: Q01DX009 (ip), vehicle: saline 250 % of control | dose: 3.12 mg/kg/injection, schedule: Q01DX009 (ip), vehicle: saline 203 % of control | dose: 3.12 mg/kg/injection, schedule: Q04DX003 (ip), vehicle: saline 222 % of control | dose: 3.3 mg/kg/injection, schedule: Q04DX003 (ip), vehicle: saline 236 % of control | dose: 4.5 mg/kg/injection, schedule: Q04DX003 (ip), vehicle: saline 200 % of control | dose: 5.0 mg/kg/injection, schedule: Q04DX003 (ip), vehicle: saline 295 % of control | [16] 231 % of control | dose: 6.6 mg/kg/injection, schedule: Q04DX003 (ip), vehicle: saline 259 % of control

O=C(O)CNC(=O)COc1ccc(Cl)c(Cl)c1
inactive: [2] 94 % of control | [3] 92 % of control | [5] 124 % of control

C[NH-].C[NH-].[I][Pt+2][I]
inactive: dose: 1.56 mg/kg/injection, schedule: Q04DX003 (ip), vehicle: other 120 % of control | dose: 3.12 mg/kg/injection, schedule: Q04DX003 (ip), vehicle: other 120 % of control | [9] 116 % of control
active: dose: 6.25 mg/kg/injection, schedule: Q04DX003 (ip), vehicle: other 163 % of control | dose: 12.5 mg/kg/injection, schedule: Q04DX003 (ip), vehicle: other 163 % of control | [8] 154 % of control

Nc1ccc2nc3ccccc3c(NCCCCCCCCNc3c4ccccc4nc4ccc(N)cc34)c2c1
active: dose: 2.5 mg/kg/injection, schedule: Q01DX009 (ip), vehicle: water 154 % of control | dose: 10.0 mg/kg/injection, schedule: Q01DX009 (ip), vehicle: water 165 % of control
